The text below walks through data of patent US20230143604A1, “QW DOSING OF GIP RECEPTOR AGONIST PEPTIDE COMPOUNDS AND USES THEREOF” (TAKEDA PHARMACEUTICAL COMPANY LIMITED, priority 2020, published 2023).

In general, solubility refers to the concentration that dissolves in the medium under given conditions. A high value points to much dissolved substance.

SMILES strings stand for the structures. Starred links: 1 amine or outer side, 2 acyl side, 3 side chain; linkers in the order of their positions; H or OH if unused. Non-standard residues stand in square brackets, D forms with d. Residues, ends and D or L forms follow the SMILES beside them. Groups on a side chain read outwards from the residue. *: point of attachment. C18 diacid = O=C(O)CCCCCCCCCCCCCCCCC(=O)*; C17 diacid = O=C(O)CCCCCCCCCCCCCCCC(=O)*; γGlu = O=C(O)[C@H](CCC(=O)[*:2])N[*:1]; NMeY = CN[C@@H](Cc1ccc(O)cc1)C(=O)O; AEEA = NCCOCCOCC(=O)O; Aib = CC(C)(N)C(=O)O

A short description of data set [1]: Human plasma protein binding (PPB). The conditions noted are these: for fraction unbound / fraction unbound at 30 min, 1000 nmol/L: both sexes, pH 7.4, human plasma, 1000 nmol/L peptide, ultracentrifugation, read-out: Human PPB (FUplasma); for free unbound peptide in human plasma (in words): judged for once per week (QW) dosing. Format: in vitro ADME. The method, then:
Stock solutions: (1000 μM) of the peptides are prepared in DMSO.
Human plasma (mixed gender; containing K2-EDTA as anti-coagulant; pre-adjusted to pH 7.4—NB alternative species may be used) is spiked individually with each test peptide (1000 nmol/L), sampled for analysis and then incubated (n=4) at 37° C. in a water bath for 30 minutes. Following the incubation period, the plasma is sampled for analysis, then transferred to ultracentrifugation tubes and centrifuged (n=3) at […] and 4° C. for 3 hours, after which the supernatant is sampled for analysis. An additional aliquot of the supernatant is taken at the end of the centrifugation period to determine the total protein concentration. An aliquot of the incubated plasma will be stored at 4° C. for 3 hours and then sampled for analysis. At the point of sampling, all samples are matrix-matched, treated with ice-cold acetonitrile/methanol (4:1 (vfv)) containing internal standard, centrifuged al 2000 g and 4° C. for 10 minutes and stored prior to LC-MS/MS analysis. An appropriate positive control compound control will be incubated and centrifuged in parallel; control plasma is also centrifuged to generate samples for matrix-matching. Fraction unbound in plasma (Fuplasma) values is determined by comparison of the analyte response in plasma to the analyte response in the supernatant, determined via peak area response ratios.
The samples are analyzed by LC-MS/MS using a 6500 (or equivalent) triple quadrupole mass spectrometer (AB Sciex) coupled to an appropriate Liquid Chromatography (LC) system. Protein binding and stability values are determined via peak area ratios using multiple reaction monitoring (MRM) parameters following compound optimisation. Multiple reaction monitoring (MRM) is a highly sensitive method of targeted mass spectrometry (MS) that can be used to selectively detect and quantify peptides based on the screening of specified precursor peptide-to-fragment ion transitions.

A short description of data set [2]: Dog plasma protein binding (PPB). Format: in vitro ADME. The conditions noted are these: pH 7.4; fraction unbound; dog serum; read-out: Dog PPB (FUplasma). The source says: Dog PPB values presented below are obtained essentially as described for Human PPB samples, with the difference being that dog serum is used instead of human serum. Table 10 is provided with the values of (Fu,plasma) as fraction unbound expressed as a percentage compared to the percent bound. i.e. if the value is 0.0123, then the fraction unbound is […], which is 1.23% of the peptide is unbound and 98.77% is bound in plasma. Methods and analysis for performing the dog PPB protocol and results are the same as noted herein as for the Human PPB protocol and analysis.

The nature of data set [3]: physchem. An outline of the steps:
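Solubility at pH 7.4 determined by stepwise addition of 200 mM phosphate buffer in 100 μL increments to 3 mg peptide, mixing briefly each time, until no insoluble material remained, then measured by liquid chromatography.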

The mark [4] stands for this setting: pH 7.4, aqueous buffer, pH 7.4 Phosphate Buffer - Solubility, 200 mM Phosphate buffer pH 7.4.
[5] abbreviates: pH 7.4, solubility in phosphate buffer at pH 7.4, 200 mM phosphate buffer pH 7.4.

Turning to `CC[C@H](C)[C@H](NC(=O)[C@H](CO)NC(=O)[C@H](Cc1ccc(O)cc1)NC(=O)[C@H](CC(=O)O)NC(=O)[C@H](CO)NC(=O)[C@@H](NC(=O)[C@H](Cc1ccccc1)NC(=O)[C@@H](NC(=O)CNC(=O)[C@H](CCC(=O)O)NC(=O)C(C)(C)NC(=O)[C@H](Cc1ccc(O)cc1)NC)[C@@H](C)O)[C@@H](C)CC)C(=O)N[C@@H](C)C(=O)N[C@@H](CC(C)C)C(=O)N[C@@H](CC(=O)O)C(=O)N[C@@H](CCCNC(=N)N)C(=O)NC(C)(C)C(=O)N[C@@H](C)C(=O)N[C@@H](CCC(N)=O)C(=O)NC(C)(C)C(=O)N[C@@H](CCCCNC(=O)COCCOCCNC(=O)COCCOCCNC(=O)CC[C@H](NC(=O)CC[C@H](NC(=O)CCCCCCCCCCCCCCCC(=O)O)C(=O)O)C(=O)O)C(=O)N[C@@H](Cc1ccccc1)C(=O)N[C@H](C(=O)N[C@@H](CC(N)=O)C(=O)N[C@@H](Cc1c[nH]c2ccccc12)C(=O)N[C@@H](CC(C)C)C(=O)N[C@@H](CC(C)C)C(=O)N[C@@H](C)C(=O)N[C@@H](CCC(N)=O)C(=O)N[C@@H](CCCNC(=N)N)C(N)=O)C(C)C` [Compound 8] (H-[NMeY][Aib]EGTFISDYSIALDR[Aib]AQ[Aib]K([AEEA-AEEA-γGlu-γGlu-C17 diacid])FVNWLLAQR-NH2), in data set [1], the fraction unbound was determined as 0.0009 and the “free unbound peptide in human plasma (in words)” value is on record as “optimum free unbound peptide”. Besides, the fraction unbound in data set [2] is 0.0016. The same compound showed a solubility in data set [3] (pH 7.4, aqueous buffer) of at least 15 mg/mL.
In the case of `CC[C@H](C)[C@H](NC(=O)[C@H](CO)NC(=O)[C@H](Cc1ccc(O)cc1)NC(=O)[C@H](CC(=O)O)NC(=O)[C@H](CO)NC(=O)[C@@H](NC(=O)[C@H](Cc1ccccc1)NC(=O)[C@@H](NC(=O)CNC(=O)[C@H](CCC(=O)O)NC(=O)C(C)(C)NC(=O)[C@H](Cc1ccc(O)cc1)NC)[C@@H](C)O)[C@@H](C)CC)C(=O)N[C@@H](C)C(=O)N[C@@H](CC(C)C)C(=O)N[C@@H](CC(=O)O)C(=O)N[C@@H](CCCNC(=N)N)C(=O)NC(C)(C)C(=O)N[C@@H](CCCCNC(=O)COCCOCCNC(=O)COCCOCCNC(=O)CC[C@H](NC(=O)CC[C@H](NC(=O)CCCCCCCCCCCCCCCC(=O)O)C(=O)O)C(=O)O)C(=O)N[C@@H](CCC(N)=O)C(=O)NC(C)(C)C(=O)N[C@@H](CC(N)=O)C(=O)N[C@@H](Cc1ccccc1)C(=O)N[C@H](C(=O)N[C@@H](CC(N)=O)C(=O)N[C@@H](Cc1c[nH]c2ccccc12)C(=O)N[C@@H](CC(C)C)C(=O)N[C@@H](CC(C)C)C(=O)N[C@@H](C)C(=O)N[C@@H](CCC(N)=O)C(=O)N[C@@H](CO)C(=O)N1CCC[C@H]1C(=O)N[C@@H](CO)C(=O)N[C@@H](CO)C(=O)NCC(=O)N[C@@H](C)C(=O)N1CCC[C@H]1C(=O)N1CCC[C@H]1C(=O)N1CCC[C@H]1C(=O)N[C@@H](CO)C(N)=O)C(C)C` [Compound 11] (H-[NMeY][Aib]EGTFISDYSIALDR[Aib]K([AEEA-AEEA-γGlu-γGlu-C17 diacid])Q[Aib]NFVNWLLAQSPSSGAPPPS-NH2), the fraction unbound at 30 min, 1000 nmol/L is 0.0038 in data set [1] and at most 0.0024 in data set [2]. Also, the “free unbound peptide in human plasma (in words)” value in data set [1] was “optimum free unbound peptide”. The solubility is at least 30 mg/mL in data set [3] (setting [4]) and at least 15 mg/mL in data set [3] (setting [5]).
On to `CC[C@H](C)[C@H](NC(=O)[C@H](Cc1ccccc1)NC(=O)[C@@H](NC(=O)CNC(=O)[C@H](CCC(=O)O)NC(=O)C(C)(C)NC(=O)[C@H](Cc1ccc(O)cc1)NC)[C@@H](C)O)C(=O)N[C@@H](CO)C(=O)N[C@@H](CC(=O)O)C(=O)N[C@@H](Cc1ccc(O)cc1)C(=O)N[C@@H](CO)C(=O)N[C@H](C(=O)NC(C)(C)C(=O)N[C@@H](CC(C)C)C(=O)N[C@@H](CC(=O)O)C(=O)N[C@@H](CCCNC(=N)N)C(=O)NC(C)(C)C(=O)N[C@@H](C)C(=O)N[C@@H](CCC(N)=O)C(=O)NC(C)(C)C(=O)N[C@@H](CCCCNC(=O)COCCOCCNC(=O)COCCOCCNC(=O)CC[C@H](NC(=O)CC[C@H](NC(=O)CCCCCCCCCCCCCCCC(=O)O)C(=O)O)C(=O)O)C(=O)N[C@@H](Cc1ccccc1)C(=O)N[C@H](C(=O)N[C@@H](CC(N)=O)C(=O)N[C@@H](Cc1c[nH]c2ccccc12)C(=O)N[C@@H](CC(C)C)C(=O)N[C@@H](CC(C)C)C(=O)N[C@@H](C)C(=O)N[C@@H](CCC(N)=O)C(=O)N[C@@H](CCCNC(=N)N)C(=O)N1CCC[C@H]1C(=O)N[C@@H](CO)C(=O)N[C@@H](CO)C(=O)NCC(=O)N[C@@H](C)C(=O)N1CCC[C@H]1C(=O)N1CCC[C@H]1C(=O)N1CCC[C@H]1C(=O)N[C@@H](CO)C(N)=O)C(C)C)[C@@H](C)CC` [Compound 13] (H-[NMeY][Aib]EGTFISDYSI[Aib]LDR[Aib]AQ[Aib]K([AEEA-AEEA-γGlu-γGlu-C17 diacid])FVNWLLAQRPSSGAPPPS-NH2), for which the fraction unbound at 30 min, 1000 nmol/L in data set [1] and in data set [2] was under 0.002 throughout. Also, the solubility in data set [3] (setting [4]) was at least 30 mg/mL; in data set [3] (setting [5]), at least 15 mg/mL.
Consider `CC[C@H](C)[C@H](NC(=O)[C@H](CO)NC(=O)[C@H](Cc1ccc(O)cc1)NC(=O)[C@H](CC(=O)O)NC(=O)[C@H](CO)NC(=O)[C@@H](NC(=O)[C@H](Cc1ccccc1)NC(=O)[C@@H](NC(=O)CNC(=O)[C@H](CCC(=O)O)NC(=O)C(C)(C)NC(=O)[C@H](Cc1ccc(O)cc1)NC)[C@@H](C)O)[C@@H](C)CC)C(=O)N[C@@H](C)C(=O)N[C@@H](CC(C)C)C(=O)N[C@@H](CC(=O)O)C(=O)N[C@@H](CCCNC(=N)N)C(=O)NC(C)(C)C(=O)N[C@@H](Cc1c[nH]cn1)C(=O)N[C@@H](CCC(N)=O)C(=O)NC(C)(C)C(=O)N[C@@H](CC(N)=O)C(=O)N[C@@H](Cc1ccccc1)C(=O)N[C@H](C(=O)N[C@@H](CC(N)=O)C(=O)N[C@@H](Cc1c[nH]c2ccccc12)C(=O)N[C@@H](CC(C)C)C(=O)N[C@@H](CC(C)C)C(=O)N[C@@H](C)C(=O)N[C@@H](CCCCNC(=O)COCCOCCNC(=O)COCCOCCNC(=O)CC[C@H](NC(=O)CC[C@H](NC(=O)CCCCCCCCCCCCCCCCC(=O)O)C(=O)O)C(=O)O)C(=O)N[C@@H](CCCNC(=N)N)C(N)=O)C(C)C` [Compound 19] (H-[NMeY][Aib]EGTFISDYSIALDR[Aib]HQ[Aib]NFVNWLLAK([AEEA-AEEA-γGlu-γGlu-C18 diacid])R-NH2), for which the values for the fraction unbound in data set [1] and in data set [2] were 0.0011 and 0.0005, respectively. Moreover, the solubility in data set [3] (pH 7.4) is at least 15 mg/mL; in data set [3] (pH 7.4, aqueous buffer), at least 30 mg/mL.
For `CC[C@H](C)[C@H](NC(=O)[C@H](CO)NC(=O)[C@H](Cc1ccc(O)cc1)NC(=O)[C@H](CC(=O)O)NC(=O)[C@H](CO)NC(=O)[C@@H](NC(=O)[C@H](Cc1ccccc1)NC(=O)[C@@H](NC(=O)CNC(=O)[C@H](CCC(=O)O)NC(=O)C(C)(C)NC(=O)[C@H](Cc1ccc(O)cc1)NC)[C@@H](C)O)[C@@H](C)CC)C(=O)N[C@@H](C)C(=O)N[C@@H](CC(C)C)C(=O)N[C@@H](CC(=O)O)C(=O)N[C@@H](CCCNC(=N)N)C(=O)NC(C)(C)C(=O)N[C@@H](C)C(=O)N[C@@H](CCC(N)=O)C(=O)NC(C)(C)C(=O)N[C@@H](CCCCNC(=O)COCCOCCNC(=O)COCCOCCNC(=O)CC[C@H](NC(=O)CC[C@H](NC(=O)CCCCCCCCCCCCCCCC(=O)O)C(=O)O)C(=O)O)C(=O)N[C@@H](Cc1ccccc1)C(=O)N[C@H](C(=O)N[C@@H](CC(N)=O)C(=O)N[C@@H](Cc1c[nH]c2ccccc12)C(=O)N[C@@H](CC(C)C)C(=O)N[C@@H](CC(C)C)C(=O)N[C@@H](C)C(=O)N[C@@H](CCC(N)=O)C(=O)N[C@@H](CCCNC(=N)N)C(=O)NCC(=O)O)C(C)C` [Compound 36] (H-[NMeY][Aib]EGTFISDYSIALDR[Aib]AQ[Aib]K([AEEA-AEEA-γGlu-γGlu-C17 diacid])FVNWLLAQRG-OH), in that order: under 0.002, 0.0034, at least 15 mg/mL and at least 60 mg/mL.
